{"source": "patent US20260297060A1", "about": "“COMPOUNDS FOR THE DEGRADATION OF MUTANT BRAF” (C4 THERAPEUTICS, INC., priority 2023, published 2026)", "key": {"[1]": {"system": "A375 human melanoma cancer cell derived xenografts, intracranial", "assay": "Example 12 efficacy study, intracranial A375-luciferase CNS model: survival", "type": "in vivo, BALB/c nude mice", "conditions": "35 mg/kg PO/QD; vehicle median 18 days", "procedure": "For the efficacy study, agents were tested in A375 human melanoma cancer cell derived xenografts (CDX). This cell line was isolated from the primary melanoma of a person and is known to have a homozygous BRAF V600E mutation. The A375 tumor cells were maintained in vitro in DMEM medium supplemented with 10% fetal bovine serum and 1% Penicillin-Streptomycin at 37° C. in an atmosphere of 5% CO2 in air. The tumor cells were routinely subcultured twice weekly. The cells growing in an exponential growth phase were harvested and counted for tumor inoculation.\nFor this CNS study, A375 cells with a luciferase tag for tracking tumor cell signal, were injected intracranially into 6-8-week-old female BALB/c nude mice (Zhejiang Vital River Laboratory Animal Co., LTD. Beijing, China). The mice were anaesthetized, restrained, and sterilized prior to surgery. A sagittal cut was made above the anterior parietal and occipital bone with sterilized scalpel, the skull was unrevealed and cleaned with cotton bud, in this case the anterior fontanel could be available. A 2 mm hole was created to the right of the anterior fontanel and 0.5 mm ahead of the coronal on the skull with a cranial drill. Cell suspensions in 20% Matrigel were mixed and aspirated into injector carefully to avoid bubbles and wiped to avoid extracranial tumor genesis. The needle was inserted vertically into the cranial hole and the cell mixture was slowly injected for 2 minutes and held for another minute to decrease the drainage of the cell suspension. The wound was closed, and a subcutaneous injection of 5 mg/kg Meloxicam was given to relieve the pain and continued for 3 days. The mice were monitored closely until they woke up after the surgery. During the study, the care and use of animals was conducted in accordance with the regulations of the Association for Assessment and Accreditation of Laboratory Animal Care (AAALAC). After inoculation, the animals were checked daily for morbidity and mortality. At the time of routine monitoring, the animals would be checked for any effects of tumor growth and treatments on normal behavior such as mobility, food and water consumption, body weight gain/loss, eye/hair matting, and any other abnormal effect.\nThe administration of the test agents began three days after inoculation. CNS tumor-bearing mice were randomly assigned to groups of 8 mice and administered Compound 26 at 10 mg/kg orally (PO) twice a day (BID), Compound 141 at 10 mg/kg PO/BID, encorafenib at 35 mg/kg once a day orally, (PO/QD), or the vehicle alone PO/BID. Measurements for the presence of the A375 luciferase (CRL-1619-LUC2, ATCC, Manassas, VA, USA) cells within the CNS were done with IVIS Lumina III machine. Images were collected twice weekly to follow the growth of the models. The tumor-bearing mice were weighed and intraperitoneally administered luciferin (Perkin Elmer Inc-122799) at a dosage of 150 mg/kg. After 10 min, mice were pre-anesthetized with the mixture gas of oxygen and isoflurane. The bioluminescence value at 15 min post luciferin injection was recorded as the final value and plotted. The endpoint for individual mice was reached when the mouse body weight decreased by 20% when compared to their starting weight."}, "[2]": {"assay": "Example 8 pharmacokinetics assay for efficacy study (plasma, liver)", "type": "in vivo, BALB/c nude mice", "conditions": "mouse, po, 35 mg/kg, p.o., QD × 21 days", "procedure": "For efficacy study, agents were tested in the A375 human melanoma xenografts model. Compound 8, Compound 26, and Compound 38 were administered to BALB/c nude mice bearing A375 xenografts from day 0 and dosed p.o. twice per day (BID). Compound 8 and Compound 26 were dosed at 10 mg/kg for 21 days. Compound 38 was dosed at 10 mg/kg for 10 days. The known BRAF inhibitor encorafenib was used as a positive control. encorafenib was administered from day 1 and dosed p.o. daily (QD) for 21 days and dosed at 35 mg/kg.\nThe plasma samples were collected at predetermined time points for PK analysis. For non-termination plasma collection, blood samples were collected into the 1.5 mL Eppendorf tubes containing 3 μL of 0.5 M EDTA-K2. For termination plasma collection, the mice were euthanized at predetermined time points post the treatment and the blood samples were collected into the 1.5 mL Eppendorf tubes containing 15 μL of 0.5 M EDTA-K2. And then the anticoagulant blood samples were centrifuged at 2,500 g at 4° C. for 15 minutes. The plasma samples were separated into 2 aliquots. The 1st was used for PK analysis, and the 2nd served as backup. The samples were stored at −80° C. before bioanalysis.\nLiver samples were collected at predetermined time points for PK analysis. The left lobe of the liver was dissected out and split into 2 parts. The 1st part was used for PK analysis and the 2nd part served as the backup for the study. The samples were transferred into pre-labeled tubes and quickly froze in liquid nitrogen within 2 minutes after dissection. The samples were stored at −80° C. before bioanalysis.\nThe harvested plasma and liver samples were processed for pharmacokinetics analysis by LC-MS/MS with a concentration range of 2.0~2000 ng/mL for encorafenib in plasma and liver homogenate, 10.0-10,000 ng/mL for Compound 8 and Compound 38 in plasma and liver homogenate, 20.0~20,000 ng/mL for Compound 26 in plasma and liver homogenate."}}, "note": "Read-outs that look alike come from different tables or passages of the source."}
{"molecule": "COC(=O)N[C@@H](C)CNc1nccc(-c2cn(C(C)C)nc2-c2cc(Cl)cc(NS(C)(=O)=O)c2F)n1", "note": "[Encorafenib, encorafenib, reference compound]", "values": [{"measurement": "median survival", "setting": "[1]", "result": 46, "unit": "days"}, {"measurement": "concentration at 6 h", "setting": "[2]; liver, read-out: Concentration in Liver (mean ± SEM)", "result": "186 ± 87.2", "unit": "ng/g"}, {"measurement": "concentration at 6 h", "setting": "[2]; plasma, read-out: Concentration in Plasma (mean ± SEM)", "result": "336 ± 150", "unit": "ng/mL"}]}
